Results: US20240246918A1, “COMPOUNDS AND COMPOSITIONS AS EIF4E INHIBITORS AND THE USES THEREOF” (Ribometrix, Inc., priority 2022, published 2024)

Tests used:
[1] = test system: COLO 205 colorectal tumor cells; assay: Tumor cell viability inhibition assay (CellTiter-Glo 2.0, 72 hours); type: cell-based; conditions: COLO 205 cell viability
Outline: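 IC50 derived by 4-parameter fitting after normalizing luminescence to DMSO and max-inhibition wells. Compounds tested as 11 concentrations in 4-fold steps on COLO 205 cells seeded at 1500 per well in RPMI-1640/10% FBS; ATP content measured with CellTiter-Glo 2.0 after 72 h.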

[2] = biological target: T1, human eIF4E protein (Homo sapiens, UniProt P06730); assay: Biochemical competitive binding assay (TR-FRET competition, EDA-m7GDP-ATTO-647N probe); conditions: read-out: hEIF4E TR-FRET IC50
T1 construct: purchased Novus NBP-45314
Outline: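 IC50 values come from 4-parameter fits of the normalized 665/620 nm TR-FRET ratio. Compound was first incubated 15 min with 4 nM recombinant His-eIF4E bound to 2.5 nM Eu-anti-His antibody, then 15 min with 5 nM m7GDP-ATTO-647N tracer, in pH 7.5 HEPES buffer with 100 mM KCl, Tween-20 and BSA.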

T1 sequence (P06730 whole entry): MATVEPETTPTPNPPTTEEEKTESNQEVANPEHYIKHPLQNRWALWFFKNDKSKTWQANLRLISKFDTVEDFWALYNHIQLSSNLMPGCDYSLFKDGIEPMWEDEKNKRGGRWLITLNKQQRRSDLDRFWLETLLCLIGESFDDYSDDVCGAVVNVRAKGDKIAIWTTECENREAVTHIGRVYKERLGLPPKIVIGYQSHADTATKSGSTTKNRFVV

| IC50 ([1]; Homo sapiens, COLO 205, 72 h) | IC50 [2] | IC50 [1] | Compound |
| --- | --- | --- | --- |
| < 5 µM | < 100 nM | – | Cc1cc(-c2cc(Cl)ccc2OCCn2c(C)nc3c(c2=O)C[C@H](N2CCCC[C@@H]2c2nccs2)CC3)c2scc(C(=O)O)c2n1 (single isomer, unassigned) [Compound 547] |
| < 5 µM | < 100 nM | – | Cc1cc(-c2cc(Cl)ccc2OCCn2c(C)nc3c(c2=O)C[C@H](N2CCC(c4nc(C(F)(F)F)cs4)CC2)CC3)c2scc(C(=O)O)c2n1 (single isomer, unassigned) [Compound 577] |
| < 5 µM | < 100 nM | – | Cc1cc(-c2cc(Cl)ccc2OCCn2c(C)nc3c(c2=O)CC(C)(N2CCC(C(F)(F)F)CC2)CC3)c2scc(C(=O)O)c2n1 (single isomer, unassigned) [Compound 530] |
| < 5 µM | < 100 nM | – | Cc1nc2c(c(=O)n1CC#Cc1ccc(Cl)cc1-c1ccnc3c(C(=O)O)csc13)C[C@H](N1CCC[C@]3(C1)CC3(F)F)CC2 (single isomer, unassigned) [Compound 570, 7-(5-chloro-2-(3-(6-(1,1-difluoro-5-azaspiro[2.5]octan-5-yl)-2-methyl-4-oxo-5,6,7,8-tetrahydroquinazolin-3(4H)-yl)prop-1-yn-1-yl)phenyl)thieno[3,2-b]pyridine-3-carboxylic acid] |
| < 5 µM | < 100 nM | – | COC1CCN(C2CCc3nc(C)n(CC#Cc4ccc(Cl)cc4-c4ccnc5c(C(=O)O)csc45)c(=O)c3C2)CC1 (single isomer, unassigned) [Compound 365] |
| 5 to 20 µM | < 100 nM | – | Cc1cc(-c2cc(Cl)ccc2OCCn2c(C)nc3c(c2=O)C[C@H](N2CC[C@H](OC(F)(F)F)C(F)(F)C2)CC3)c2scc(C(=O)O)c2n1 (single isomer, unassigned) [Compound 404] |
| < 5 µM | < 100 nM | – | Cc1cc(-c2cc(Cl)ccc2OCCn2c(C)nc3c(c2=O)CC(N2CCC(OC(F)(F)F)CC2)CC3)c2scc(C(=O)NS(C)(=O)=O)c2n1 (single isomer, unassigned) [Compound 104] |
| > 20 µM | < 100 nM | – | Cc1cc(-c2cc(Cl)ccc2OCCn2c(C)nc3c(c2=O)CC(N2CCC4(CC2)CNCCO4)CC3)c2scc(C(=O)O)c2n1 (single isomer, unassigned) [Compound 527] |
| – | 100 to 500 nM | > 20 µM | Cc1cc(-c2cc(Cl)ccc2OCCn2c(C)nc3c(c2=O)CC(CN)(N2CCC(OC(F)(F)F)CC2)CC3)c2scc(C(=O)O)c2n1 (single isomer, unassigned) [Compound 623] |
| – | < 100 nM | < 5 µM | Cc1cc(-c2cc(Cl)ccc2OCCn2c(C)nc3c(c2=O)CC(N2CCC4(CN(CC(F)(F)F)CC(F)(F)C4)C2)CC3)c2scc(C(=O)O)c2n1 (single isomer, unassigned) [Compound 512] |
| < 5 µM | < 100 nM | – | Cc1cc(-c2cc(Cl)ccc2OCCn2c(C)nc3c(c2=O)C[C@@H](N2CCC[C@H](C(F)F)C2)CC32CC2)c2scc(C(=O)O)c2n1 (single isomer, unassigned) [Compound 610] |

Continued, compound first:

| Compound | IC50 ([1]; Homo sapiens, COLO 205, 72 h) | IC50 [2] | IC50 [1] |
| --- | --- | --- | --- |
| Cc1csc([C@@H]2CCCN([C@@H]3CCc4nc(C)n(CCOc5ccc(Cl)cc5-c5cc(C)nc6c(C(=O)O)csc56)c(=O)c4C3)C2)n1 (single isomer, unassigned) [Compound 484] | < 5 µM | < 100 nM | – |
| Cc1cc(-c2cc(Cl)ccc2OCCn2c(C)nc3c(c2=O)C[C@H](N2CCC[C@]4(C2)CC4(F)F)CC32CC2)c2scc(C(=O)O)c2n1 (single isomer, unassigned) [Compound 581] | < 5 µM | < 100 nM | – |
| Cc1cc(-c2cc(Cl)ccc2OCCn2c(C)nc3c(c2=O)C[C@@H](N2CCC[C@H](C(F)(F)F)C2)CC3)c2scc(C(=O)O)c2n1 (single isomer, unassigned) [Compound 384] | < 5 µM | < 100 nM | – |
| Cc1cc(-c2cc(Cl)ccc2OCCn2c(C)nc3c(c2=O)C[C@@H](N2CCC[C@H](OC(F)(F)F)C2)CC3)c2scc(C(=O)O)c2n1 (single isomer, unassigned) [Compound 472] | < 5 µM | < 100 nM | – |
| Cc1cc(-c2cc(Cl)ccc2OCCn2c(C)nc3c(c2=O)CC(N2CCC(OC(F)(F)F)CC2)CC3)c2scc(C(=O)NS(=O)(=O)C3CC3)c2n1 (single isomer, unassigned) [Compound 417] | < 5 µM | < 100 nM | – |
| Cc1cc(-c2cc(Cl)ccc2OCCn2c(C)nc3c(c2=O)C[C@@H](N2CC4CCC(C2)C4OC(F)(F)F)CC3)c2scc(C(=O)O)c2n1 (single isomer, unassigned) [Compound 495] | < 5 µM | < 100 nM | – |
| Cc1cc(-c2cc(Cl)ccc2OCCn2c(C(F)(F)F)nc3c(c2=O)CC(N2CCC(OC(F)(F)F)CC2)CC3)c2scc(C(=O)O)c2n1 (single isomer, unassigned) [Compound 631] | – | 500 to 5000 nM | > 20 µM |
| COc1cc(C2CCN([C@H]3CCc4nc(C)n(CCOc5ccc(Cl)cc5-c5cc(C)nc6c(C(=O)O)csc56)c(=O)c4C3)CC2)ccn1 (single isomer, unassigned) [Compound 576] | < 5 µM | < 100 nM | – |
| CO[C@@H]1CCN([C@@H]2CCc3nc(C)n(CCOc4ccc(Cl)cc4-c4cc(C)nc5c(C(=O)O)csc45)c(=O)c3C2)CC12CC2 (single isomer, unassigned) [Compound 519] | > 20 µM | < 100 nM | – |
| Cc1cc(-c2cc(Cl)ccc2OCCn2c(C)nc3c(c2=O)C[C@H](N2CCC(c4nccs4)CC2)CC3)c2scc(C(=O)O)c2n1 (single isomer, unassigned) [Compound 475] | < 5 µM | < 100 nM | – |
| Cc1cc(-c2cc(Cl)ccc2OCCn2c(C)nc3c(c2=O)C[C@@H](N2C[C@H]4CC[C@@H]2CC4OC(F)(F)F)CC32CC2)c2scc(C(=O)O)c2n1 (single isomer, unassigned) [Compound 607] | < 5 µM | < 100 nM | – |
| Cc1cc(-c2cc(Cl)ccc2OCCn2c(C)nc3c(c2=O)CC(N)CC3)c2scc(C(=O)O)c2n1 (stereo not drawn) [Compound 411] | < 5 µM | < 100 nM | – |
| Cc1cc(-c2cc(Cl)ccc2OCCn2c(C)nc3c(c2=O)C[C@H](N2CCCC(F)(F)CC2)CC3)c2scc(C(=O)O)c2n1 (single isomer, unassigned) [Compound 401] | < 5 µM | < 100 nM | – |
| Cc1cc(-c2cc(Cl)ccc2OCCn2c(C)nc3c(c2=O)C[C@@H](N2CCC(CC(F)(F)F)CC2)CC3)c2scc(C(=O)O)c2n1 (single isomer, unassigned) [Compound 106] | < 5 µM | < 100 nM | – |
| Cc1cc(-c2cc(Cl)ccc2OCCn2c(C)nc3c(c2=O)C[C@@H](N2CCCC[C@H]2C(F)(F)F)CC32CC2)c2scc(C(=O)O)c2n1 (single isomer, unassigned) [Compound 630] | 5 to 20 µM | < 100 nM | – |
| CCS(=O)(=O)C1CCN(C2CCc3nc(C)n(CCOc4ccc(Cl)cc4-c4cc(C)nc5c(C(=O)O)csc45)c(=O)c3C2)CC1 (stereo not drawn) [Compound 115] | 5 to 20 µM | < 100 nM | – |
| Cc1cc(-c2cc(Cl)ccc2OCCn2c(C)nc3c(c2=O)C[C@H](N2CCC(c4noc5ccc(F)cc45)CC2)CC3)c2scc(C(=O)O)c2n1 (single isomer, unassigned) [Compound 488] | < 5 µM | < 100 nM | – |
| Cc1cc(-c2cc(Cl)ccc2OCCn2c(C)nc3c(c2=O)C[C@@H](N2CCCC[C@@H]2c2cccc(F)c2)CC32CC2)c2scc(C(=O)O)c2n1 (single isomer, unassigned) [Compound 629, 7-(5-chloro-2-(2-(6′-(2-(3-fluorophenyl)piperidin-1-yl)-2′-methyl-4′-oxo-6′,7′-dihydro-4′H-spiro[cyclopropane-1,8′-quinazolin]-3′(5′H)-yl)ethoxy)phenyl)-5-methylthieno[3,2-b]pyridine-3-carboxylic acid] | 5 to 20 µM | 500 to 5000 nM | – |
| Cc1nc2c(c(=O)n1CCOc1ccc(Cl)cc1-c1ccnc(CC(=O)O)c1)CC(N(C)CC1CC(F)(F)C1)CC2 (stereo not drawn) [Compound 118] | > 20 µM | 500 to 5000 nM | – |
| Cc1cc(-c2cc(Cl)ccc2OCCn2c(C)nc3c(c2=O)CC(N2CC4(CCCN(CC(F)(F)F)C4)C2)CC3)c2scc(C(=O)O)c2n1 (single isomer, unassigned) [Compound 507] | < 5 µM | < 100 nM | – |
| Cc1cc(-c2cc(Cl)ccc2OCCn2c(C)nc3c(c2=O)C[C@@H](N2CC[C@@H](C(F)F)C2)CC3)c2scc(C(=O)O)c2n1 (single isomer, unassigned) [Compound 120] | < 5 µM | < 100 nM | – |
| Cc1cc(-c2cc(Cl)ccc2OCCn2c(C)nc3c(c2=O)CC(N2CCC(OC(F)(F)F)CC2)CC32CC2)c2scc(C(=O)O)c2n1 (single isomer, unassigned) [Compound 379, 7-(5-chloro-2-(2-(2′-methyl-4′-oxo-6′-(4-(trifluoromethoxy)piperidin-1-yl)-6′,7′-dihydro-4′H-spiro[cyclopropane-1,8′-quinazolin]-3′(5′H)-yl)ethoxy)phenyl)-5-methylthieno[3,2-b]pyridine-3-carboxylic acid] | < 5 µM | < 100 nM | – |
| Cc1cc(-c2cc(Cl)ccc2OCCn2c(C)nc3c(c2=O)C[C@H](N2CCC(c4ccccc4OC(F)(F)F)CC2)CC3)c2scc(C(=O)O)c2n1 (single isomer, unassigned) [Compound 571] | < 5 µM | < 100 nM | – |
| Cc1cc(-c2cc(Cl)ccc2OCCn2c(C)nc3c(c2=O)CC(N2CCC(c4ccc(F)cc4)CC2)CC3)c2scc(C(=O)O)c2n1 (stereo not drawn) [Compound 132] | < 5 µM | < 100 nM | – |
| CO[C@@H]1CCN([C@@H]2CCc3nc(C)n(CCOc4ccc(Cl)cc4-c4cc(C)nc5c(C(=O)O)csc45)c(=O)c3C2)C[C@@H]1F (single isomer, unassigned) [Compound 366] | 5 to 20 µM | < 100 nM | – |
